In patent US20230135152A1 (ACURASTEM INCORPORATED, priority 2020, published 2023):

Key:
PIKFYVE [1] = target: T1, PIKFYVE (Homo sapiens, UniProt Q9Y2I7); experiment: PIKFYVE assay (luciferase ADP-Glo kinase assay, Promega); type: biochemical
Method in brief: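 Kinase activity measured with a luciferase-based ADP-Glo read-out, which quantifies ADP formed by the enzyme.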

PIKFYVE [2] = target: T1, PIKFYVE; experiment: Cell-based Pikfyve inhibition activity assay (EEA1 staining, mean vesicle size in BJ fibroblast cells); details: Table 4, 4 hours treatment, 3 μM Apilimod = 100% inhibition
Procedure: BJ fibroblast cells were obtained from American Type Cell Culture (ATCC, CRL-2522). The cells were maintained in DMEM (Genesee Scientific, 25-500) supplemented with 10% fetal bovine serum (Genesee Scientific, 25-514) and 1% penicillin-streptomycin (Genesee Scientific, 25-512) at 37° C. in the atmosphere 5% CO2. BJ fibroblasts were plated into black flat clear bottom 96-well plates (Grenier, 655090) at a density of 3×10^3 per well and were allowed to attach in culture for 8-10 hours before drug treatment. Drugs were tested at eleven doses separated by 3 fold from 0.03 nM to 3000 nM in triplicates for 4 hours at 37° C. After 4 hours, treatment media was aspirated and replaced with 4% Paraformaldehyde (Electron Microscopy Science, 15714-S) and cells were fixed at room temperature for 5 minutes. 4% PFA in wells were then discarded and replaced with a blocking buffer consisting of 1×PBS with 0.1% Tween (Sigma-Aldrich, P1754-500), 5% Donkey Serum (Jackson ImmunoResearch, 017-000-121), and 1% BSA (Caisson Labs, B005-50GM) and incubated at room temperature for 30 minutes. Blocking buffer was then discarded and replaced with a primary EEA1 antibody (Fisher Scientific, BD610457) in a 1:1000 dilution and incubated at 4° C. overnight. Following overnight incubation, plates were washed with 1×PBS three times and incubated with secondary antibody Donkey anti-Mouse IgG, Alexa Fluor 555 (Invitrogen, A31570) (1:1000 dilution) for 1 hour at room temperature in the dark. Subsequently cell plates were washed with 1×PBS three times and can be stored at 4° C. if not being proceeding with imaging procedure.
Images were acquired with 20× objective (ImageXpress MicroConfocal, Molecular Devices) creating z-series of 5 planes (5 steps, […]), 16 tiles per well. Images were then analyzed using a custom CellProfiler protocol to obtain mean vesicle size. The mean vesicle size from 16 images was used as the output for each well. The mean vesicle size from 0.5% DMSO treated condition was considered as having no Pikfyve inhibition activity and the 3 μM Apilimod treated condition was considered as having 100% inhibition activity. The mean vesicle size was converted to % inhibition activity and the data was fitted to a dose-response curve using log(inhibitor) vs normalized response-variable slope using GraphPad Prism.

T1 sequence (Q9Y2I7 whole entry): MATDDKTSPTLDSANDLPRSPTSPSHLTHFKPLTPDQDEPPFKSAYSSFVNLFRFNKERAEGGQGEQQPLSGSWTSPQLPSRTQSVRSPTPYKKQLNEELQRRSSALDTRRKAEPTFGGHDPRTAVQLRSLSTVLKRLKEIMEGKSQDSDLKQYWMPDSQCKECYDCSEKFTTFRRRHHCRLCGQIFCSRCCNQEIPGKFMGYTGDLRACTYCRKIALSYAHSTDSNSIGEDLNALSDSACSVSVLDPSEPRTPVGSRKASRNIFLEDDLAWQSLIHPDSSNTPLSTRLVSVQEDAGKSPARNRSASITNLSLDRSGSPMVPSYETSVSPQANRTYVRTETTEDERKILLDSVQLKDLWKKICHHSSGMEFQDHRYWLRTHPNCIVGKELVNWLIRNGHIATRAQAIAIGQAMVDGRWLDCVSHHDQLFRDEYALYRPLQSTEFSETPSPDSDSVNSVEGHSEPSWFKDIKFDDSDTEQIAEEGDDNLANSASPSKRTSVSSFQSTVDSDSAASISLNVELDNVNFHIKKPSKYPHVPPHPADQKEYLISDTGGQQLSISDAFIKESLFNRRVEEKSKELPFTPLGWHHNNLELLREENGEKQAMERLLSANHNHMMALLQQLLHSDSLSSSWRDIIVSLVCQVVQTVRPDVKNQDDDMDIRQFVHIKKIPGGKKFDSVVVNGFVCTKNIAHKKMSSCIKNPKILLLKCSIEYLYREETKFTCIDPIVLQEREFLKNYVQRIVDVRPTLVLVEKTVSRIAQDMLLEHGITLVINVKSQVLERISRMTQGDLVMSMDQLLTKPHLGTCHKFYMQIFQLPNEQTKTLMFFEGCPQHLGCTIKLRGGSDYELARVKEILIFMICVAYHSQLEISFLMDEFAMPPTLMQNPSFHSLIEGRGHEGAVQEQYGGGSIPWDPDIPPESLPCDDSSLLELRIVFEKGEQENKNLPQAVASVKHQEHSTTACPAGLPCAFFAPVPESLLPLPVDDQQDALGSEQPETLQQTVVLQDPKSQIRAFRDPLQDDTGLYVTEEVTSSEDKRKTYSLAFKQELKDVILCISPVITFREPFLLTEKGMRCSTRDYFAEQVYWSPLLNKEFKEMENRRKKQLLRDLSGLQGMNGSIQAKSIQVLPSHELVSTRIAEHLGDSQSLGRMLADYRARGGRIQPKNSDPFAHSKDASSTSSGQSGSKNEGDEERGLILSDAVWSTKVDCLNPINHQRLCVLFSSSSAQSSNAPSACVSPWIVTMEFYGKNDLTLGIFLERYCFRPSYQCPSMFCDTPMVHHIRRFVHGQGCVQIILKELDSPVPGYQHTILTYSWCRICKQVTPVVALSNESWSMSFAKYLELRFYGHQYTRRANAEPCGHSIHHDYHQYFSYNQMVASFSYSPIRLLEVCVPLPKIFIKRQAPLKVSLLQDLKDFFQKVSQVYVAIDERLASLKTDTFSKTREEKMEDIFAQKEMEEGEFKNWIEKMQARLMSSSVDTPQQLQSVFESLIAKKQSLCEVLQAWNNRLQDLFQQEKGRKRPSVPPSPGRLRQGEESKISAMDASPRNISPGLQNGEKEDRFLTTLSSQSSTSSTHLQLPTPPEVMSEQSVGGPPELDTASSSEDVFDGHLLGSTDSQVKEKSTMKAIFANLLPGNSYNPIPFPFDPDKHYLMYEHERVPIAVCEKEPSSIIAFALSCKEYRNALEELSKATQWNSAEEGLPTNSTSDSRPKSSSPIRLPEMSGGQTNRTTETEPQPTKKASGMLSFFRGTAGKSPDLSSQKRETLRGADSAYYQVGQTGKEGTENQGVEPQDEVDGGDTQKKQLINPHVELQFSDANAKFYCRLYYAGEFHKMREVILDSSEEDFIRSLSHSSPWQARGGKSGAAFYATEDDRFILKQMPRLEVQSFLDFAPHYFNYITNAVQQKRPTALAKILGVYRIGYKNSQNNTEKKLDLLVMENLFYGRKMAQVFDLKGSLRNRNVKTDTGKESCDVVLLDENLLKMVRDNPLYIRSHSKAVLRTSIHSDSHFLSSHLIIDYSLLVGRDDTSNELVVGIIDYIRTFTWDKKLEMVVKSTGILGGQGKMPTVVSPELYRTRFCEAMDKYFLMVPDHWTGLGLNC

SMILES | IC50 (PIKFYVE [1]; Table 2) [nM] | EC50 (PIKFYVE [2]) [µM] | IC50 (PIKFYVE [1]; Table 3) [nM]
Cn1cc(CCOc2nc(N3CCOCC3)cc(-n3ccc(C(=O)Nc4ccccc4)n3)n2)cn1 [Compound 64, 1-(2-(2-(1-methyl-1H-pyrazol-4-yl)ethoxy)-6-morpholinopyrimidin-4-yl)-N-phenyl-1H-pyrazole-3-carboxamide] | < 5 | 0.02 to 0.1 | 
COc1cccc(-c2ccn(-c3cc(N4CCOCC4)nc([C@H](CO)OC)n3)n2)c1 [Compound 263, (R)-2-methoxy-2-(4-(3-(3-methoxyphenyl)-1H-pyrazol-1-yl)-6-morpholinopyrimidin-2-yl)ethan-1-ol] |  | 0.1 to 0.5 | 10 to 100
COC(C)(CO)c1nc(N2CCOCC2)cc(-n2ccc(-c3cccc(C)c3)n2)n1 (stereo not drawn) [Compound 226, 2-methoxy-2-(4-morpholino-6-(3-(m-tolyl)-1H-pyrazol-1-yl)pyrimidin-2-yl)propan-1-ol] |  | 0.5 to 5 | 3 to 10
COc1nc(N2CCOCC2)cc(-n2nc(-c3cccc(C)c3)cc2CN2CCOCC2)n1 [Compound 236, 4-(2-methoxy-6-(5-(morpholinomethyl)-3-(m-tolyl)-1H-pyrazol-1-yl)pyrimidin-4-yl)morpholine] |  | > 5 | < 3
Cc1cccc(-c2ccn(-c3cc(N4CCOCC4)nc(OCCc4c[nH]cn4)n3)n2)c1 [Compound 119, 4-(2-(2-(1H-imidazol-4-yl)ethoxy)-6-(3-(m-tolyl)-1H-pyrazol-1-yl)pyrimidin-4-yl)morpholine] |  | 0.02 to 0.1 | 3 to 10
Cn1cc(CCOc2nccc(N3CCOCC3)n2)cn1 [Compound 173, 4-(2-(2-(1-methyl-1H-pyrazol-4-yl)ethoxy)pyrimidin-4-yl)morpholine] |  | > 5 | > 5000
Cc1cccc(-c2ccn(-c3cc(N4CCOCC4)nc(OCCN)n3)n2)c1 [Compound 209, 2-((4-morpholino-6-(3-(m-tolyl)-1H-pyrazol-1-yl)pyrimidin-2-yl)oxy)ethan-1-amine] |  | 0.1 to 0.5 | 10 to 100
CC(=O)NCCOc1nc(N2CCOCC2)cc(-n2ccc(-c3cccc(C)c3)n2)n1 [Compound 90, N-(2-((4-morpholino-6-(3-(m-tolyl)-1H-pyrazol-1-yl)pyrimidin-2-yl)oxy)ethyl) acetamide] | < 5 | < 0.02 | 
COC(CC#N)c1nc(N2CCOCC2)cc(-n2ccc(-c3cccc(C)c3)n2)n1 (stereo not drawn) [Compound 72, 3-methoxy-3-(4-morpholino-6-(3-(m-tolyl)-1H-pyrazol-1-yl)pyrimidin-2-yl)propanenitrile] | < 5 | 0.1 to 0.5 | 
CO[C@@H](CO)c1nc(N2CCOCC2)cc(-n2ccc(-c3c[nH]c4ncccc34)n2)n1 [Compound 293, (R)-2-(4-(3-(1H-pyrrolo[2,3-b]pyridin-3-yl)-1H-pyrazol-1-yl)-6-morpholinopyrimidin-2-yl)-2-methoxyethan-1-ol] |  | 0.1 to 0.5 | 10 to 100
Cn1cc(CCOc2nc(N3CCOCC3)cc(-n3ccc(-c4cccc(F)c4)n3)n2)cn1 [Compound 195, 4-(6-(3-(3-fluorophenyl)-1H-pyrazol-1-yl)-2-(2-(1-methyl-1H-pyrazol-4-yl)ethoxy)pyrimidin-4-yl)morpholine] |  | 0.02 to 0.1 | < 3
COc1nc(N2CCOCC2)c(C)c(-n2ccc(-c3cccc(C)c3)n2)n1 [Compound 83, 4-(2-methoxy-5-methyl-6-(3-(m-tolyl)-1H-pyrazol-1-yl)pyrimidin-4-yl)morpholine] | 101 to 1000 | > 5 | 
Cc1cccc(-c2cc(N3CCOCC3)n(-c3cc(N4CCOCC4)nc(OCCc4cnn(C)c4)n3)n2)c1 [Compound 237, 4-(2-(2-(1-methyl-1H-pyrazol-4-yl)ethoxy)-6-(5-morpholino-3-(m-tolyl)-1H-pyrazol-1-yl)pyrimidin-4-yl)morpholine] |  | < 0.02 | < 3
Cc1cccc(-c2ccn(-c3cc(N4CCOCC4)nc(CCc4ccnn4C)n3)n2)c1 [Compound 338, 4-(2-(2-(1-methyl-1H-pyrazol-5-yl)ethyl)-6-(3-(m-tolyl)-1H-pyrazol-1-yl)pyrimidin-4-yl)morpholine] |  | > 5 | 3 to 10
CCc1cccc(-c2ccn(-c3cc(N4CCOCC4)nc([C@H](CO)OC)n3)n2)c1 [Compound 273, (R)-2-(4-(3-(3-ethylphenyl)-1H-pyrazol-1-yl)-6-morpholinopyrimidin-2-yl)-2-methoxyethan-1-ol] |  | 0.1 to 0.5 | 3 to 10
Cc1cccc(-c2ccn(-c3cc(N4CCOCC4)nc(OCCNc4ccccc4)n3)n2)c1 [Compound 99, N-(2-((4-morpholino-6-(3-(m-tolyl)-1H-pyrazol-1-yl)pyrimidin-2-yl)oxy)ethyl)aniline] |  | 0.1 to 0.5 | 10 to 100
Cc1cccc(-c2ccn(-c3cc(N4CCOCC4)nc(N(C)C)n3)n2)c1 [Compound 107, N,N-dimethyl-4-morpholino-6-(3-(m-tolyl)-1H-pyrazol-1-yl)pyrimidin-2-amine] |  | 0.5 to 5 | 10 to 100
Cc1cccc(-c2ccn(-c3cc(N4CCOCC4)n4ncc(C)c4n3)n2)c1 [Compound 337, 4-(3-methyl-5-(3-(m-tolyl)-1H-pyrazol-1-yl)pyrazolo[1,5-a]pyrimidin-7-yl)morpholine] |  | 0.5 to 5 | 10 to 100
CC(=O)c1nc(N2CCOCC2)cc(-n2ccc(-c3cccc(C)c3)n2)n1 [Compound 88, 1-(4-morpholino-6-(3-(m-tolyl)-1H-pyrazol-1-yl)pyrimidin-2-yl)ethan-1-one] | < 5 | 0.1 to 0.5 | 
C#CCCCOc1nc(N2CCOCC2)cc(-n2ccc(-c3cccc(C)c3)n2)n1 [Compound 108, 4-(2-(pent-4-yn-1-yloxy)-6-(3-(m-tolyl)-1H-pyrazol-1-yl)pyrimidin-4-yl)morpholine] |  | 0.02 to 0.1 | 3 to 10
Cc1cccc(-c2ccn(-c3cc(N4CCOCC4)nc(CCc4cccnn4)n3)n2)c1 [Compound 317, 4-(2-(2-(pyridazin-3-yl)ethyl)-6-(3-(m-tolyl)-1H-pyrazol-1-yl)pyrimidin-4-yl)morpholine] |  | 0.1 to 0.5 | 3 to 10
Cc1cccc(-c2ccn(-c3cc(N4CCOCC4)nc(N4CCCC4=O)n3)n2)c1 [Compound 61, 1-(4-morpholino-6-(3-(m-tolyl)-1H-pyrazol-1-yl)pyrimidin-2-yl)pyrrolidin-2-one] | 5 to 100 | 0.1 to 0.5 | 
Cc1cccc(Oc2ccn(-c3cc(N4CCOCC4)nc(OCCc4cnn(C)c4)n3)n2)c1 [Compound 346] |  | 0.02 to 0.1 | < 3
CO[C@@H](CO)c1nc(N2CCO[C@@H](C)C2)cc(-n2ccc(-c3cccc(C)c3)n2)n1 (single isomer, unassigned) [Compound 306] |  | > 5 | 100 to 5000
Cc1cc(-c2ccccc2)nn1-c1cc(N2CCOCC2)nc(N)n1 [Compound 202, 4-(5-methyl-3-phenyl-1H-pyrazol-1-yl)-6-morpholinopyrimidin-2-amine] |  | 0.5 to 5 | 100 to 5000
Cc1cccc(-c2ccn(-c3cc(N4CCOCC4)nc(OCCOc4ccccc4)n3)n2)c1 [Compound 93, 4-(2-(2-phenoxyethoxy)-6-(3-(m-tolyl)-1H-pyrazol-1-yl)pyrimidin-4-yl)morpholine] |  | 0.1 to 0.5 | 10 to 100
Cc1cccc(-c2cc(CN(C)C)n(-c3cc(N4CCOCC4)nc(OCC4(C)COC4)n3)n2)c1 [Compound 206, N,N-dimethyl-1-(1-(2-((3-methyloxetan-3-yl)methoxy)-6-morpholinopyrimidin-4-yl)-3-(m-tolyl)-1H-pyrazol-5-yl)methanamine] |  | 0.5 to 5 | 3 to 10
COC(c1ccccc1)c1nc(N2CCOCC2)cc(-n2ccc(-c3ccccc3)n2)n1 (stereo not drawn) [Compound 78, 4-(2-(methoxy(phenyl)methyl)-6-(3-phenyl-1H-pyrazol-1-yl)pyrimidin-4-yl)morpholine] | 5 to 100 | 0.5 to 5 | 
CCCc1ccn(-c2cc(N3CCOCC3)nc(OCCc3cnn(C)c3)n2)n1 [Compound 124, 4-(2-(2-(1-methyl-1H-pyrazol-4-yl)ethoxy)-6-(3-propyl-1H-pyrazol-1-yl)pyrimidin-4-yl)morpholine] |  | > 5 | > 5000
Cc1cccc(-c2ccn(-c3cc(N4CCOCC4)nc(OCc4cn[nH]c4)n3)n2)c1 [Compound 120, 4-(2-((1H-pyrazol-4-yl)methoxy)-6-(3-(m-tolyl)-1H-pyrazol-1-yl)pyrimidin-4-yl)morpholine] |  | 0.1 to 0.5 | 10 to 100
